{
  "source": "patent US20090062721A1",
  "about": "“IONTOPHORESIS DEVICE AND METHOD OF MANUFACTURING THE SAME” (TTI ELLEBEAU INC., priority 2006, published 2009)",
  "experiment": "pH of aqueous lidocaine hydrochloride solution brought into contact with an activated carbon fiber polarizable electrode",
  "type": "physicochemical",
  "conditions": "after contact with polarizable electrode composed of activated carbon fibers, within an extremely short time period",
  "note": "Where a name gives a salt, the structure may show the parent alone.",
  "data": [
    {"smiles": "CCN(CC)CC(=O)Nc1c(C)cccc1C", "note": "[lidocaine hydrochloride]", "values": [
      {"measurement": "pH value of aqueous solution", "result": "about 2.5"}
    ]}
  ]
}
